The values that follow come from US11590116B2 (THERAVANCE BIOPHARMA R&D IP, LLC, priority 2019, dated 2023).

Molecules are shown by their SMILES. Where two headings read alike, the source gives them in different places. Bounds are passed on as bounds.

Assay [1] has as its target T1, recombinant human ALK5 (TGF-βR1) protein (Homo sapiens, UniProt P36897).
T1 construct: purchased Life Technologies PR9075A
T1 sequence (P36897 34-503): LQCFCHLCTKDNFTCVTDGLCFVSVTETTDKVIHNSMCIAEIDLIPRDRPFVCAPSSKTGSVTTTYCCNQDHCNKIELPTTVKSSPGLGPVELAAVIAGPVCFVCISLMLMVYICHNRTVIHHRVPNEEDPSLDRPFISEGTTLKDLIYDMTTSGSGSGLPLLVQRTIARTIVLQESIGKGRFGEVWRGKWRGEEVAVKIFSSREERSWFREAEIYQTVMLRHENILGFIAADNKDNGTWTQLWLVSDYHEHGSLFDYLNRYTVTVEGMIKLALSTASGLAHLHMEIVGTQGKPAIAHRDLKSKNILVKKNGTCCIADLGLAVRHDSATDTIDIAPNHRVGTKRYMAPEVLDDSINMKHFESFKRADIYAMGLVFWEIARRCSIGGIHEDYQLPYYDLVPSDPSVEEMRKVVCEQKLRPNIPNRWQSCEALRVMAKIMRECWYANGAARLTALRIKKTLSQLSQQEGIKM
Briefly: Biochemical ALK5 (TGF-βR1) assay to measure pKi (LANCE Ultra ULight kinase assay). Conditions: apparent pKi from pIC50 by Cheng-Prusoff. The method, boiled down: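 Dose range 10 μM–25 pM; enzyme + compound 60 min RT; ATP added (5× stock 125 μM, 2 mM DTT); 60 min 37 °C; stop with EDTA + Eu anti-phospho-Topo IIα Thr1342 Ab; TR-FRET ex 320/340, em 665 nm. 4-param pIC50 → pKi (Cheng-Prusoff).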

In assay [2] the test system is TGF-β-stimulated SMAD3 phosphorylation in BEAS-2B cells. The assay can be described thus: Cellular ALK5 potency assay, inhibition of TGF-β stimulated pSMAD3 formation in BEAS-2B cells. In kind it is cell-based. Conditions: Homo sapiens, read-out: BEAS2B pIC50 (converted). The method in brief:
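Cells seeded overnight; rinse with supplemented HBSS; compound 1 h at 37 °C; TGF-β 10 ng/mL final, 30 min; lyse; AlphaLISA acceptor and detector beads 2 h apart, read next day. Potency expressed as pIC50.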

[3] abbreviates: inhibition of TGF-β stimulated pSMAD3 formation, BEAS-2B cells.

Turning to `Cc1cccc(-c2[nH]cnc2-c2ccc3ncc(-c4cc(C(=O)O[C@H]5CCNC5)cs4)cc3c2)n1` [Compound 885, [(3S)-pyrrolidin-3-yl] 5-[6-[5-(6-methyl-2-pyridyl)-1H-imidazol-4-yl]-3-quinolyl]thiophene-3-carboxylate], the Ki in assay [1] (read-out: ALK5 pKi (converted)) is less than 0.0316 nM. The IC50 in assay [2] (setting [3]) was 25.1 to 158 nM.

Take `Cc1cccc(-c2[nH]cnc2-c2ccc3ncc(-c4ccc(C(=O)OC5CCNCC5)s4)cc3c2)n1` [Compound 1010, piperidin-4-yl 5-(6-(5-(6-methylpyridin-2-yl)-1H-imidazol-4-yl)quinolin-3-yl)thiophene-2-carboxylate]: in assay [1] (read-out: ALK5 pKi (converted)), the Ki is 0.0398 to 0.316 nM. Also, in assay [2] (setting [3]), the IC50 is 25.1 to 158 nM.

On to `Cc1cccc(-c2[nH]cnc2-c2ccc3ncc(-c4csc(C(=O)OCCC5CNC5)c4)cc3c2)n1` [Compound 1169, 2-(azetidin-3-yl)ethyl 4-[6-[5-(6-methyl-2-pyridyl)-1H-imidazol-4-yl]-3-quinolyl]thiophene-2-carboxylate], for which, in assay [1] (read-out: ALK5 pKi (converted)), the Ki is less than 0.0316 nM. The IC50 in assay [2] (setting [3]) was 25.1 to 158 nM.

`Cc1cccc(-c2[nH]cnc2-c2ccc3ncc(-c4csc(C(=O)O[C@H]5CCNC5)n4)cc3c2)n1` [Compound 1024, [(3S)-pyrrolidin-3-yl] 4-[6-[5-(6-methyl-2-pyridyl)-1H-imidazol-4-yl]-3-quinolyl]thiazole-2-carboxylate]: in assay [1] (read-out: ALK5 pKi (converted)), the Ki is 0.0398 to 0.316 nM. Moreover, the IC50 in assay [2] (setting [3]) is 25.1 to 158 nM.

Turning to `Cc1cccc(-c2[nH]cnc2-c2ccc3ncc(NCCN4CCN[C@@H](CO)C4)cc3c2)n1` [Compound 708, [(2R)-4-[2-[[6-[5-(6-methyl-2-pyridyl)-1H-imidazol-4-yl]-3-quinolyl]amino]ethyl]piperazin-2-yl]methanol], the Ki in assay [1] (read-out: ALK5 pKi (converted)) is 0.0398 to 0.316 nM. Moreover, in assay [2] (setting [3]), the IC50 was 200 to 1260 nM.

In the case of `COC(=O)[C@H]1CCCCN1CCNc1cnc2ccc(-c3nc[nH]c3-c3cccc(C)n3)cc2c1` [Compound 706, methyl (2R)-1-[2-[[6-[5-(6-methyl-2-pyridyl)-1H-imidazol-4-yl]-3-quinolyl]amino]ethyl]piperidine-2-carboxylate], the Ki in assay [1] (read-out: ALK5 pKi (converted)) is 0.0398 to 0.316 nM. The IC50 in assay [2] (setting [3]) is 25.1 to 158 nM.

For the molecule `Cc1cccc(-c2n[nH]cc2-c2ccc3ncc(C4C[C@H]5CC[C@@H](C4)N5)cc3n2)n1` (mixture of isomers) [Compound 350, 2-[3-(6-methyl-2-pyridyl)-1H-pyrazol-4-yl]-7-[rac-(1S,5R)-8-azabicyclo[3.2.1]octan-3-yl]-1,5-naphthyridine], the Ki in assay [1] (ALK5 pKi) fell in the range of 3.98 to 31.6 nM. Also, in assay [2] (BEAS-2B), the IC50 is 200 to 1260 nM.

Take `Cc1cccc(-c2n[nH]cc2-c2ccc3ncc(-c4cn[nH]c4)c(C4CCCN4)c3c2)n1` (centres unmarked) [Compound 356]: the Ki in assay [1] (read-out: ALK5 pKi (converted)) is 0.0398 to 0.316 nM. In assay [2] (setting [3]), the IC50 was 200 to 1260 nM.

Regarding `Cc1cccc(-c2n[nH]cc2-c2ccc3nccc(NC(=O)CN4CCN(C(C)C)CC4)c3n2)n1` [Compound 839, 2-(4-isopropylpiperazin-1-yl)-N-[6-[3-(6-methyl-2-pyridyl)-1H-pyrazol-4-yl]-1,5-naphthyridin-4-yl]acetamide], in assay [1] (read-out: ALK5 pKi (converted)), the Ki is 0.398 to 3.16 nM. In addition, the IC50 in assay [2] (setting [3]) is 25.1 to 158 nM.

For the molecule `CNCCn1cc(-c2cnc3ccc(-c4c(-c5cccc(C)n5)[nH]c5ccccc45)cc3c2)cn1` [Compound 162, N-methyl-2-[4-[6-[2-(6-methyl-2-pyridyl)-1H-indol-3-yl]-3-quinolyl]pyrazol-1-yl]ethanamine], in assay [1] (read-out: ALK5 pKi (converted)), the Ki is 0.0398 to 0.316 nM. Also, in assay [2] (setting [3]), the IC50 was 200 to 1260 nM.

Turning to `Cc1cccc(-c2[nH]cnc2-c2ccc3ncc(C(=O)OCCN4CCC5(CC4)CNC5)cc3c2)n1` [Compound 892, 2-(2,7-diazaspiro[3.5]nonan-7-yl)ethyl 6-(5-(6-methylpyridin-2-yl)-1H-imidazol-4-yl)quinoline-3-carboxylate], in assay [1] (read-out: ALK5 pKi (converted)), the Ki was 0.0398 to 0.316 nM. Further, in assay [2] (setting [3]), the IC50 is 200 to 1260 nM.

Take `Cc1cccc(-c2nnn(C)c2-c2ccc3ncc(-c4cn[nH]c4)cc3c2)n1` [Compound 399, 6-[3-methyl-5-(6-methyl-2-pyridyl)triazol-4-yl]-3-(1H-pyrazol-4-yl)quinoline]: in assay [1] (read-out: ALK5 pKi (converted)), the Ki is less than 0.0316 nM. For the same molecule, the IC50 in assay [2] (setting [3]) is less than 20 nM.

With `Cc1cccc(-c2n[nH]cc2-c2ccc3ncc(-c4ccc(=O)n(C)c4)cc3n2)n1` [Compound 345, 1-methyl-5-[6-[3-(6-methyl-2-pyridyl)-1H-pyrazol-4-yl]-1,5-naphthyridin-3-yl]pyridin-2-one], the Ki in assay [1] (read-out: ALK5 pKi (converted)) was less than 0.0316 nM. In addition, the IC50 in assay [2] (setting [3]) is less than 20 nM.

On to `Cc1cccc(-c2n[nH]cc2-c2ccc3ncc(O)cc3n2)n1` [Compound 694, 6-[3-(6-methyl-2-pyridyl)-1H-pyrazol-4-yl]-1,5-naphthyridin-3-ol], for which the Ki in assay [1] (read-out: ALK5 pKi (converted)) was 0.0398 to 0.316 nM. In assay [2] (setting [3]), the IC50 was less than 20 nM.

Regarding `Cc1nc(-c2n[nH]cc2-c2ccc3ncc(-c4cnn([C@@H]5CCCC[C@H]5N)c4)cc3n2)ccc1F` [Compound 490, (1R,2R)-2-(4-(6-(3-(5-fluoro-6-methylpyridin-2-yl)-1H-pyrazol-4-yl)-1,5-naphthyridin-3-yl)-1H-pyrazol-1-yl)cyclohexan-1-amine], in assay [1] (read-out: ALK5 pKi (converted)), the Ki is less than 0.0316 nM. Further, in assay [2] (setting [3]), the IC50 was less than 20 nM.

Turning to `Cc1cccc(-c2[nH]cnc2-c2ccc3ncc(N4CCC(NCCSC5CCOC5=O)C4)cc3c2)n1` (centres unmarked) [Compound 230, 3-[2-[[1-[6-[5-(6-methyl-2-pyridyl)-1H-imidazol-4-yl]-3-quinolyl]pyrrolidin-3-yl]amino]ethylsulfanyl]tetrahydrofuran-2-one], the Ki in assay [1] (read-out: ALK5 pKi (converted)) is less than 0.0316 nM. Further, the IC50 in assay [2] (setting [3]) is 25.1 to 158 nM.

`Cc1cccc(-c2n[nH]cc2-c2ccc3ncc(N4CCC5NCCC5C4)cc3n2)n1` (centres unmarked) [Compound 151, 7-(1,2,3,3a,4,6,7,7a-octahydropyrrolo[3,2-c]pyridin-5-yl)-2-[3-(6-methyl-2-pyridyl)-1H-pyrazol-4-yl]-1,5-naphthyridine]: the Ki in assay [1] (read-out: ALK5 pKi (converted)) is 0.0398 to 0.316 nM. Further, in assay [2] (setting [3]), the IC50 is 25.1 to 158 nM.

Consider `Cc1cccc(-c2[nH]cnc2-c2ccc3ncc(N4CCCC5(CNC5)C4)cc3c2)n1` [Compound 280, 3-(2,6-diazaspiro[3.5]nonan-6-yl)-6-[5-(6-methyl-2-pyridyl)-1H-imidazol-4-yl]quinoline], for which the Ki in assay [1] (read-out: ALK5 pKi (converted)) was 0.0398 to 0.316 nM. Also, in assay [2] (setting [3]), the IC50 was 200 to 1260 nM.

With `Cc1cccc(-c2[nH]cnc2-c2ccc3ncc(C(=O)OCCN4CCN5CCCC5C4)cc3c2)n1` (centres unmarked) [Compound 1067, 2-(3,4,6,7,8,8a-hexahydro-1H-pyrrolo[1,2-a]pyrazin-2-yl)ethyl 6-[5-(6-methyl-2-pyridyl)-1H-imidazol-4-yl]quinoline-3-carboxylate], the Ki in assay [1] (read-out: ALK5 pKi (converted)) is 0.0398 to 0.316 nM. In assay [2] (setting [3]), the IC50 is 25.1 to 158 nM.

Take `Cc1cccc(-c2[nH]cnc2-c2ccc3ncc(NCCN4CCNC(C(=O)O)C4)cc3c2)n1` (centres unmarked) [Compound 712, 4-[2-[[6-[5-(6-methyl-2-pyridyl)-1H-imidazol-4-yl]-3-quinolyl]amino]ethyl]piperazine-2-carboxylic acid]: the Ki in assay [1] (read-out: ALK5 pKi (converted)) was 0.0398 to 0.316 nM. The IC50 in assay [2] (setting [3]) is 200 to 1260 nM.

`Cc1nc(-c2nc3ccccn3c2-c2ccc3ncc(N4CCCNCC4)cc3n2)ccc1F` [Compound 84, 7-(1,4-diazepan-1-yl)-2-[2-(5-fluoro-6-methyl-2-pyridyl)imidazo[1,2-a]pyridin-3-yl]-1,5-naphthyridine]: in assay [1] (read-out: ALK5 pKi (converted)), the Ki is 0.0398 to 0.316 nM. Further, the IC50 in assay [2] (setting [3]) was 25.1 to 158 nM.

For the molecule `Cc1cccc(-c2n[nH]cc2-c2ccc3ncc(N4CCC(O)C4)cc3n2)n1` (racemic) [Compound 312, rac-(3R)-1-[6-[3-(6-methyl-2-pyridyl)-1H-pyrazol-4-yl]-1,5-naphthyridin-3-yl]pyrrolidin-3-ol], the Ki in assay [1] (read-out: ALK5 pKi (converted)) is less than 0.0316 nM. Also, in assay [2] (setting [3]), the IC50 is less than 20 nM.
